Data on 14 compounds can be found in patent publication US8729031B2, “Compounds” (priority 2009, dated 2014).

In brackets after ≈: the same amount, converted by molar mass. Like-named read-outs stand apart in the source and are kept apart here.

What all share (assay type): cell-based
Assay [1] deals with S. aureus SH1000. As to the method:
(§1) Susceptibility testing with the exception of Streptococcus pneumoniae was performed by two-fold serial dilutions in Mueller Hinton Broth supplemented with 50 μg/mL Ca^2+. Susceptibility testing of S. pneumoniae was performed by two-fold serial dilutions in Brain-Heart-Infusion Broth supplemented with 50 μg/mL Ca^2+.

Assay [2] deals with S. aureus R33 (MRSA). As to the method:
as §1

In assay [3] the test system is Streptococcus pneumoniae. As to the kind of experiment: microbe, parasite or virus in culture. Conditions: Streptococcus pneumoniae, read-out: MIC. On the procedure:
as §1

On to `CC[C@H](C)[C@@H]1NC(=O)[C@@H]2NC(=O)[C@H](CC(C)C)NC(=O)[C@H](NC(=O)[C@@H]3CSC[C@@H](N)C(=O)N[C@@H](CO)C(=O)NCC(=O)N[C@@H](Cc4c[nH]c5ccccc45)C(=O)N[C@@H](C(C)C)C(=O)N3)[C@H](C)SC[C@H](NC(=O)[C@H](CCC(=O)O)NC1=O)C(=O)NCC(=O)N[C@H]1C(=O)N[C@@H](CC(C)C)C(=O)N[C@@H](C(C)C)C(=O)N[C@@H](CS[C@H]2C)C(=O)N[C@@H](C)C(=O)N[C@H](C(=O)N2CCN(Cc3ccc(Br)cc3F)CC2)CS[C@H]1C` [Example 7, Deoxyactagardine B [4-(2′-fluoro-4′-bromobenzyl)piperazine]monocarboxamide], for which the “MIC in μg/mL against strain S. aureus SH1000” value in assay [1] was 8 µg/mL (≈ 3.76 µM). Besides, in assay [2], the “MIC in μg/mL against strain S. aureus R33 (MRSA)” value (“MIC in μg/mL … (MRSA)” below) amounted to 8 µg/mL (≈ 3.76 µM).

Turning to `CC[C@H](C)[C@@H]1NC(=O)[C@@H]2NC(=O)[C@H](CC(C)C)NC(=O)[C@H](NC(=O)[C@@H]3CSC[C@@H](N)C(=O)N[C@@H](CO)C(=O)NCC(=O)N[C@@H](Cc4c[nH]c5ccccc45)C(=O)N[C@@H](C(C)C)C(=O)N3)[C@H](C)SC[C@H](NC(=O)[C@H](CCC(=O)O)NC1=O)C(=O)NCC(=O)N[C@H]1C(=O)N[C@@H](CC(C)C)C(=O)N[C@@H](C(C)C)C(=O)N[C@@H](CS[C@H]2C)C(=O)N[C@@H](C)C(=O)N[C@H](C(=O)NCc2ccc(Br)cc2)CS[C@H]1C` [Example 9, Deoxyactagardine B [4-bromobenzylamine]monocarboxamide], in assay [1], the “MIC in μg/mL against strain S. aureus SH1000” value stood at 8 µg/mL (≈ 3.92 µM).

For the compound `CC[C@H](C)[C@@H]1NC(=O)[C@@H]2NC(=O)[C@H](CC(C)C)NC(=O)[C@H](NC(=O)[C@@H]3CSC[C@@H](N)C(=O)N[C@@H](CO)C(=O)NCC(=O)N[C@@H](Cc4c[nH]c5ccccc45)C(=O)N[C@@H](C(C)C)C(=O)N3)[C@H](C)SC[C@H](NC(=O)[C@H](CCC(=O)O)NC1=O)C(=O)NCC(=O)N[C@H]1C(=O)N[C@@H](CC(C)C)C(=O)N[C@@H](C(C)C)C(=O)N[C@@H](CS[C@H]2C)C(=O)N[C@@H](C)C(=O)N[C@H](C(=O)NCc2ccc(F)cc2F)CS[C@H]1C` [Example 15, Deoxyactagardine B (2,4-difluorobenzylamine)monocarboxamide], the “MIC in μg/mL against strain S. aureus SH1000” value in assay [1] was found to be 8 µg/mL (≈ 4 µM). For the same compound, the “MIC in μg/mL … (MRSA)” value in assay [2] stood at 8 µg/mL (≈ 4 µM).

With `CC[C@H]1OC(=O)[C@H](C)[C@@H](O[C@H]2C[C@@](C)(OC)[C@@H](O)[C@H](C)O2)[C@H](C)[C@@H](O[C@@H]2O[C@H](C)C[C@H](N(C)C)[C@H]2O)[C@](C)(O)C[C@@H](C)C(=O)[C@H](C)[C@@H](O)[C@]1(C)O` [Erythromycin, reference compound], the MIC in assay [3] (isolate QB37301, penicillin Resistant) is more than 32 µg/mL; in assay [3] (isolate QB37302, penicillin Resistant), more than 32 µg/mL; in assay [3] (isolate QB37303, penicillin Intermediate), not above 0.015 µg/mL; in assay [3] (isolate QB37304, penicillin Susceptible), 8 µg/mL (≈ 10.9 µM); in assay [3] (isolate QB37306, penicillin Susceptible) it was not above 0.015 µg/mL; in assay [3] (isolate QB37307, penicillin Intermediate), not above 0.015 µg/mL. In addition, the MIC in assay [3] (isolate QB37308, penicillin Susceptible) is not above 0.015 µg/mL; in assay [3] (isolate QB37309, penicillin Resistant), 2 µg/mL (≈ 2.73 µM); in assay [3] (isolate QB37310, penicillin Resistant), more than 32 µg/mL; in assay [3] (isolate QB37311, penicillin Resistant) it was more than 32 µg/mL; in assay [3] (isolate QB37312, penicillin Intermediate) it was more than 32 µg/mL; in assay [3] (isolate QB37313, penicillin Susceptible) it was more than 32 µg/mL. The MIC is more than 32 µg/mL in assay [3] (isolate QB37314, penicillin Resistant); not above 0.015 µg/mL in assay [3] (isolate QB37315, penicillin Susceptible); not above 0.015 µg/mL in assay [3] (isolate QB37316, penicillin Susceptible); not above 0.015 µg/mL in assay [3] (isolate QB37317, penicillin Susceptible); 4 µg/mL (≈ 5.45 µM) in assay [3] (isolate QB37318, penicillin Resistant); more than 32 µg/mL in assay [3] (isolate QB37319, penicillin Resistant).

As for `CC[C@H](C)[C@@H]1NC(=O)[C@@H]2NC(=O)[C@H](CC(C)C)NC(=O)[C@H](NC(=O)[C@@H]3CSC[C@@H](N)C(=O)N[C@@H](CO)C(=O)NCC(=O)N[C@@H](Cc4c[nH]c5ccccc45)C(=O)N[C@@H](C(C)C)C(=O)N3)[C@H](C)SC[C@H](NC(=O)[C@H](CCC(=O)O)NC1=O)C(=O)NCC(=O)N[C@H]1C(=O)N[C@@H](CC(C)C)C(=O)N[C@@H](C(C)C)C(=O)N[C@@H](CS[C@H]2C)C(=O)N[C@@H](C)C(=O)N[C@H](C(=O)NCCCCCCNCc2cc(Cl)cc(Cl)c2)CS[C@H]1C` [Example 30, Deoxyactagardine B [6-(3′,5′-dichlorobenzylamino)-hexylamine]monocarboxamide], the “MIC in μg/mL against strain S. aureus SH1000” value in assay [1] stood at 4 µg/mL (≈ 1.88 µM). In addition, in assay [2], the “MIC in μg/mL … (MRSA)” value turned out to be 8 µg/mL (≈ 3.75 µM).

In the case of “deoxyactagardine B N-[1-(3-dimethylamino propyl)piperazine]monocarboxamide [reference compound]”, the “MIC against Stapholococcus aureus strain SH1000” value in assay [1] (strain SH1000, text b20) was “approximately 64 μL/mL”. In addition, the “MIC against Stapholococcus aureus strain R33” value in assay [2] (strain R33, text b20) was “approximately 64 μL/mL”.

“Deoxyactagardine B (3,4-dichlorobenzylamine)monocarboxamide [Example 22]”: in assay [1], the “MIC in μg/mL against strain S. aureus SH1000” value is “≦4 μg/mL”. Moreover, the “MIC in μg/mL … (MRSA)” value in assay [2] is on record as “≦4 μg/mL”.

Regarding “Deoxyactagardine B (4-chlorobenzylamine)monocarboxamide [Example 25]”, the “MIC in μg/mL against strain S. aureus SH1000” value in assay [1] is given as “≦4 μg/mL”. For the same compound, the “MIC in μg/mL … (MRSA)” value in assay [2] is “≦4 μg/mL”.

“Actagardine (3,5-dichlorobenzylamine)monocarboxamide [Example 2]”: the “MIC in μg/mL against strain S. aureus SH1000” value in assay [1] is on record as “≦4 μg/mL”. In addition, the “MIC in μg/mL … (MRSA)” value in assay [2] is given as “≦4 μg/mL”.

For the compound `CC[C@H](C)[C@@H]1NC(=O)[C@@H]2NC(=O)[C@H](CC(C)C)NC(=O)[C@H](NC(=O)[C@@H]3CSC[C@@H](N)C(=O)N[C@@H](CO)C(=O)NCC(=O)N[C@@H](Cc4c[nH]c5ccccc45)C(=O)N[C@@H](C(C)C)C(=O)N3)[C@H](C)SC[C@H](NC(=O)[C@H](CCC(=O)O)NC1=O)C(=O)NCC(=O)N[C@H]1C(=O)N[C@@H](CC(C)C)C(=O)N[C@@H](C(C)C)C(=O)N[C@@H](CS[C@H]2C)C(=O)N[C@@H](C)C(=O)N[C@H](C(=O)NCCCNCCCNCc2cc(Cl)cc(Cl)c2)CS[C@H]1C` [Example 20, Deoxyactagardine B [3-(3′-(3″,5″-dichlorobenzylamino)propylamino)propylamine]monocarboxamide], in assay [1], the “MIC in μg/mL against strain S. aureus SH1000” value was found to be 8 µg/mL (≈ 3.73 µM). Also, in assay [2], the “MIC in μg/mL … (MRSA)” value worked out at 8 µg/mL (≈ 3.73 µM).

Turning to “Deoxyactagardine B [3-(2′-aminomethyl-4′-(2″,4″-dichlorophenyl)-furanyl)propylamine]monocarboxamide [Example 32]”, in assay [1], the “MIC in μg/mL against strain S. aureus SH1000” value is recorded as “≦4 μg/mL”. Moreover, the “MIC in μg/mL … (MRSA)” value in assay [2] is “≦4 μg/mL”.

Consider “Deoxyactagardine B (3-chlorobenzylamine)monocarboxamide [Example 24]”, for which, in assay [1], the “MIC in μg/mL against strain S. aureus SH1000” value is “≦4 μg/mL”. In assay [2], the “MIC in μg/mL … (MRSA)” value is “≦4 μg/mL”.

Regarding “Deoxyactagardine B (2-chlorobenzylamine)monocarboxamide [Example 23]”, the “MIC in μg/mL against strain S. aureus SH1000” value in assay [1] is “≦4 μg/mL”. In assay [2], the “MIC in μg/mL … (MRSA)” value is on record as “≦4 μg/mL”.

`CC[C@H](C)[C@@H]1NC(=O)[C@@H]2NC(=O)[C@H](CC(C)C)NC(=O)[C@H](NC(=O)[C@@H]3CSC[C@@H](N)C(=O)N[C@@H](CO)C(=O)NCC(=O)N[C@@H](Cc4c[nH]c5ccccc45)C(=O)N[C@@H](C(C)C)C(=O)N3)[C@H](C)SC[C@H](NC(=O)[C@H](CCC(=O)O)NC1=O)C(=O)NCC(=O)N[C@H]1C(=O)N[C@@H](CC(C)C)C(=O)N[C@@H](C(C)C)C(=O)N[C@@H](CS[C@H]2C)C(=O)N[C@@H](C)C(=O)N[C@H](C(=O)N2CCN(c3ccc(Cl)c(Cl)c3)CC2)CS[C@H]1C` [Example 10, Deoxyactagardine B [4-(3′,4′-dichlorophenyl)piperazine]monocarboxamide]: the “MIC in μg/mL against strain S. aureus SH1000” value in assay [1] came to 8 µg/mL (≈ 3.83 µM).
